Measurements from patent US12637454B2, “Heterocyclic monoacylglycerol lipase (MAGL) inhibitors” (Hoffmann-La Roche Inc., priority 2019, dated 2026).
pIC50: −log10 of the molar value.

These compounds were tested against T1, MAGL (Homo sapiens, UniProt Q99685) (assay: 2-AG assay (MAGL inhibitory activity, hydrolysis of 2-arachidonoylglycerol followed by mass spectrometry)). Conditions: 50 pM MAGL, 8 μM 2-arachidonoylglycerol, 15 min preincubation, 30 min incubation at RT.
T1 sequence (Q99685 1-303): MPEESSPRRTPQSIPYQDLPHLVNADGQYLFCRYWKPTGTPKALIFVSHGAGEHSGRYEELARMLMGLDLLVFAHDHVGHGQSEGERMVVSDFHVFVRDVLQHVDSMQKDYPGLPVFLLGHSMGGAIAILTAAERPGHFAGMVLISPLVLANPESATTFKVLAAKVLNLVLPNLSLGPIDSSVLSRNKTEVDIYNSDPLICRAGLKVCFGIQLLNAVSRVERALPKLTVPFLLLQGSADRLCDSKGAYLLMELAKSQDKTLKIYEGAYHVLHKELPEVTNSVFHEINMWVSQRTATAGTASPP
Format: biochemical
Procedure: Compounds were profiled for MAGL inhibitory activity by determining the enzymatic activity by following the hydrolysis of the natural substrate 2-arachidonoylglycerol (2-AG) resulting in arachidonic acid, which can be followed by mass spectrometry. This assay is hereinafter abbreviated “2-AG assay”.
The 2-AG assay was carried out in 384 well assay plates (PP, Greiner Cat #784201) in a total volume of 20 μL. Compound dilutions were made in 100% DMSO (VWR Chemicals 23500.297) in a polypropylene plate in 3-fold dilution steps to give a final concentration range in the assay from 12.5 μM to 0.8 pM. 0.25 μL compound dilutions (100% DMSO) were added to 9 μL MAGL in assay buffer (50 mM TRIS (GIBCO, 15567-027), 1 mM EDTA (Fluka, 03690-100 mL), 0.01% (v/v) Tween. After shaking, the plate was incubated for 15 min at RT. To start the reaction, 10 μL 2-arachidonoylglycerol in assay buffer was added. The final concentrations in the assay was 50 pM MAGL and 8 μM 2-arachidonoylglyerol. After shaking and 30 min incubation at RT, the reaction was quenched by the addition of […] of ACN containing 4 μM of d8-arachidonic acid. The amount of arachidonic acid was traced by an online SPE system (Agilent Rapidfire) coupled to a triple quadrupole mass spectrometer (Agilent 6460). A C18 SPE cartridge (G9205A) was used in an ACN/water liquid setup. The mass spectrometer was operated in negative electrospray mode following the mass transitions 303.1→259.1 for arachidonic acid and 311.1→267.0 for d8-arachidonic acid. The activity of the compounds was calculated based on the ratio of intensities [arachidonic acid/d8-arachidonic acid].

Question: How did the pIC50 turn out when O=C(c1cccc(N2CCNC2=O)c1Cl)N1CCN2C[C@@](O)(c3ccc(Cl)cc3)CC[C@@H]2C1 [Example 14, 1-[3-[(7S,9aR)-7-(4-chlorophenyl)-7-hydroxy-3,4,6,8,9,9a-hexahydro-1H-pyrido[1,2-a]pyrazine-2-carbonyl]-2-chlorophenyl]imidazolidin-2-one] was run?
Answer: The pIC50 was 5.67.

Question: With Cc1c[nH]nc1-c1cccc(C(=O)N2CCN3C[C@@](O)(c4ccc(Cl)cc4)CC[C@@H]3C2)c1F [Example 15, [(7S,9aR)-7-(4-chlorophenyl)-7-hydroxy-3,4,6,8,9,9a-hexahydro-1H-pyrido[1,2-a]pyrazin-2-yl]-[2-fluoro-3-(4-methl1-1H-pyrazol-3-yl)phenyl]methanone] as the compound, how does the pIC50 read?
Answer: The pIC50 was 6.77.

Question: How did the pIC50 turn out when Cc1cn[nH]c1-c1cccc(C(=O)N2CCN3C[C@@](O)(c4ccc(Cl)cc4)CC[C@@H]3C2)c1Cl [Example 16, [(7S,9aR)-7-(4-chlorophenyl)-7-hydroxy-3,4,6,8,9,9a-hexahydro-1H-pyrido[1,2-a]pyrazin-2-yl]-[2-chloro-3-(4-methyl-1H-pyrazol-5-yl)phenyl]methanone] was run?
Answer: The pIC50 was 7.99.

Question: Cc1c[nH]nc1-c1cccc(C(=O)N2CCN3C[C@@](O)(c4ccc(Cl)cc4)CC[C@@H]3C2)c1 [Example 17] was tested. Which pIC50 did it give?
Answer: The pIC50 was 6.59.

Question: How did the pIC50 turn out when COc1cccc(C(=O)N2CCN3C[C@@](O)(c4ccc(C(F)(F)F)cn4)CC[C@@H]3C2)c1Cl [Example 18] was run?
Answer: The pIC50 was 7.01.

Question: COc1cccc(C(=O)N2CCN3C[C@](O)(c4ccc(C(F)(F)F)cn4)CC[C@H]3C2)c1Cl [Example 19, [(7S,9aS)-7-hydroxy-7-[5-(trifluoromethyl)pyridin-2-yl]-3,4,6,8,9,9a-hexahydro-1H-pyrido[1,2-a]pyrazin-2-yl]-(2-chloro-3-methoxyphenyl)methanone] was tested. Which pIC50 did it give?
Answer: Its pIC50 is 6.82.

Question: With O=C(c1cccc(-c2ccn[nH]2)c1Cl)N1CCN2C[C@@](O)(c3ccc(C(F)(F)F)cn3)CC[C@@H]2C1 [Example 20, [(7R,9aR)-7-hydroxy-7-[5-(trifluoromethyl)pyridin-2-yl]-3,4,6,8,9,9a-hexahydro-1H-pyrido[1,2-a]pyrazin-2-yl]-[2-chloro-3-(1H-pyrazol-5-yl)phenyl]methanone] as the compound, how does the pIC50 read?
Answer: The pIC50 was 7.94.

Question: How did the pIC50 turn out when O=C(c1cccc(N2CCOCC2)c1F)N1CCN2C[C@@](O)(c3ccc(Cl)cc3)CC[C@@H]2C1 [Example 21, [(7S,9aR)-7-(4-chlorophenyl)-7-hydroxy-3,4,6,8,9,9a-hexahydro-1H-pyrido[1,2-a]pyrazin-2-yl]-(2-fluoro-3-morpholino-phenyl)methanone] was run?
Answer: The pIC50 was 6.45.

Question: How did the pIC50 turn out when CC(C)(C)OC(=O)N1CCN(c2cccc(C(=O)N3CCN4C[C@@](O)(c5ccc(Cl)cc5)CC[C@@H]4C3)c2F)CC1 [Example 22, tert-butyl 4-[3-[(7S,9aR)-7-(4-chlorophenyl)-7-hydroxy-3,4,6,8,9,9a-hexahydro-1H-pyrido[1,2-a]pyrazine-2-carbonyl]-2-fluorophenyl]piperazine-1-carboxylate] was run?
Answer: The pIC50 was 6.08.

Question: O=C(c1cccc(N2CCNCC2)c1F)N1CCN2C[C@@](O)(c3ccc(Cl)cc3)CC[C@@H]2C1 [Example 23, [(7S,9aR)-7-(4-chlorophenyl)-7-hydroxy-3,4,6,8,9,9a-hexahydro-1H-pyrido[1,2-a]pyrazin-2-yl]-(2-fluoro-3-piperazin-1-ylphenyl)methanone] was tested. Which pIC50 did it give?
Answer: The pIC50 was 6.18.

Question: With O=C(c1cccc(/C=C\c2ccccc2)c1Br)N1CCN2C[C@@H](c3ccc(Cl)cc3)CC[C@@H]2C1 [Example 27, [(7R,9aR)-7-(4-chlorophenyl)-1,3,4,6,7,8,9,9a-octahydropyrido[1,2-a]pyrazin-2-yl]-[2-bromo-3-[(Z)-2-phenylethenyl]phenyl]methanone] as the compound, how does the pIC50 read?
Answer: The pIC50 was 7.98.

Question: With O=C(c1cccc(/C=C/c2ccccc2)c1Br)N1CCN2C[C@@H](c3ccc(Cl)cc3)CC[C@@H]2C1 [Example 28, [(7R,9aR)-7-(4-chlorophenyl)-1,3,4,6,7,8,9,9a-octahydropyrido[1,2-a]pyrazin-2-yl]-[2-bromo-3-[(E)-2-phenylethenyl]phenyl]methanone] as the compound, how does the pIC50 read?
Answer: Its pIC50 is 6.77.

Question: CC(C)(C)OC(=O)Nc1ccc(/C=C/c2cccc(C(=O)N3CCN4C[C@@H](c5ccc(Cl)cc5)CC[C@@H]4C3)c2Br)cc1 [Example 29] was tested. Which pIC50 did it give?
Answer: Its pIC50 is 8.12.

Question: How did the pIC50 turn out when C=CC(=O)Nc1ccc(/C=C/c2cccc(C(=O)N3CCN4C[C@@H](c5ccc(Cl)cc5)CC[C@@H]4C3)c2Br)cc1 [Example 30, N-[4-[(E)-2-[3-[(7R,9aR)-7-(4-chlorophenyl)-1,3,4,6,7,8,9,9a-octahydropyrido[1,2-a]pyrazine-2-carbonyl]-2-bromophenyl]ethenyl]phenyl]prop-2-enamide] was run?
Answer: The pIC50 was 7.73.

Question: How did the pIC50 turn out when O=C(c1cccc(N2CC(O)C2)c1Cl)N1CCN2C[C@@](O)(c3ccc(C(F)(F)F)cn3)CC[C@@H]2C1 [Example 32, [(7R,9aR)-7-hydroxy-7-[5-(trifluoromethyl)pyridin-2-yl]-3,4,6,8,9,9a-hexahydro-1H-pyrido[1,2-a]pyrazin-2-yl]-[2-chloro-3-(3-hydroxyazetidin-1-yl)phenyl]methanone] was run?
Answer: Its pIC50 is 7.14.

Question: With O=C(c1cccc(O)c1Cl)N1CCN2C[C@@](O)(c3ccc(Cl)cc3)CC[C@@H]2C1 [Example 33, [(7S,9aR)-7-(4-chlorophenyl)-7-hydroxy-3,4,6,8,9,9a-hexahydro-1H-pyrido[1,2-a]pyrazin-2-yl]-(2-chloro-3-hydroxyphenyl)methanone] as the compound, how does the pIC50 read?
Answer: The pIC50 was 6.80.

Question: O=C1CN(c2cccc(C(=O)N3CCN4C[C@@](O)(c5ccc(Cl)cc5)CC[C@@H]4C3)c2F)CCN1 [Example 34, 4-(3-((7S,9aR)-7-(4-chlorophenyl)-7-hydroxyoctahydro-2H-pyrido[1,2-a]pyrazine-2-carbonyl)-2-fluorophenyl)piperazin-2-one] was tested. Which pIC50 did it give?
Answer: Its pIC50 is 6.84.

Question: How did the pIC50 turn out when O=C1CN(c2cccc(C(=O)N3CCN4C[C@@](O)(c5ccc(Cl)cc5)CC[C@@H]4C3)c2Cl)CCN1 [Example 35, 4-[3-[(7S,9aR)-7-(4-chlorophenyl)-7-hydroxy-3,4,6,8,9,9a-hexahydro-1H-pyrido[1,2-a]pyrazine-2-carbonyl]-2-chlorophenyl]piperazin-2-one] was run?
Answer: The pIC50 was 7.07.

Question: O=C(c1cccc(N2CCC23COC3)c1Cl)N1CCN2C[C@@](O)(c3ccc(Cl)cc3)CC[C@@H]2C1 [Example 36, [(7S,9aR)-7-(4-chlorophenyl)-7-hydroxy-3,4,6,8,9,9a-hexahydro-1H-pyrido[1,2-a]pyrazin-2-yl]-[2-chloro-3-(6-oxa-1-azaspiro[3.3]heptan-1-yl)phenyl]methanone] was tested. Which pIC50 did it give?
Answer: Its pIC50 is 7.12.

Question: O=C(c1cccc(N2CC(O)C2)c1F)N1CCN2C[C@@](O)(c3ccc(F)c(Cl)c3)CC[C@@H]2C1 [Example 39, [(7S,9aR)-7-(3-chloro-4-fluorophenyl)-7-hydroxy-3,4,6,8,9,9a-hexahydro-1H-pyrido[1,2-a]pyrazin-2-yl]-[2-fluoro-3-(3-hydroxyazetidin-1-yl)phenyl]methanone] was tested. Which pIC50 did it give?
Answer: The pIC50 was 7.42.

Question: How did the pIC50 turn out when O=C(c1cccc(N2CC(O)C2)c1Cl)N1CCN2C[C@@](O)(c3ccc(F)c(Cl)c3)CC[C@@H]2C1 [Example 40] was run?
Answer: Its pIC50 is 8.16.

Question: How did the pIC50 turn out when O=C(c1cccc(F)c1Cl)N1CCN2C[C@@](O)(c3ccc(C(F)(F)F)cn3)CC[C@@H]2C1 [Example 41, [(7R,9aR)-7-hydroxy-7-[5-(trifluoromethyl)pyridin-2-yl]-3,4,6,8,9,9a-hexahydro-1H-pyrido[1,2-a]pyrazin-2-yl]-(2-chloro-3-fluorophenyl)methanone] was run?
Answer: The pIC50 was 6.41.

Question: O=C(c1cccc(F)c1Cl)N1CCN2C[C@](O)(c3ccc(C(F)(F)F)cn3)CC[C@H]2C1 [Example 42, [(7S,9aS)-7-hydroxy-7-[5-(trifluoromethyl)pyridin-2-yl]-3,4,6,8,9,9a-hexahydro-1H-pyrido[1,2-a]pyrazin-2-yl]-(2-chloro-3-fluorophenyl)methanone] was tested. Which pIC50 did it give?
Answer: The pIC50 was 5.32.

Question: How did the pIC50 turn out when O=C(c1cccc(N2CC[C@H](O)C2)c1Cl)N1CCN2C[C@@](O)(c3ccc(F)c(Cl)c3)CC[C@@H]2C1 [Example 43, [(7S,9aR)-7-(3-chloro-4-fluorophenyl)-7-hydroxy-3,4,6,8,9,9a-hexahydro-1H-pyrido[1,2-a]pyrazin-2-yl]-[2-chloro-3-[(3S)-3-hydroxypyrrolidin-1-yl]phenyl]methanone] was run?
Answer: The pIC50 was 7.68.

Question: With O=C(c1cccc(N2CC[C@@H](O)C2)c1Cl)N1CCN2C[C@@](O)(c3ccc(F)c(Cl)c3)CC[C@@H]2C1 [Example 44, [(7S,9aR)-7-(3-chloro-4-fluorophenyl)-7-hydroxy-3,4,6,8,9,9a-hexahydro-1H-pyrido[1,2-a]pyrazin-2-yl]-[2-chloro-3-[(3R)-3-hydroxypyrrolidin-1-yl]phenyl]methanone] as the compound, how does the pIC50 read?
Answer: Its pIC50 is 7.81.
